Measurements taken from patent publication US8268836B2, “Compound useful as a c-Met inhibitor” (Eli Lilly and Company, priority 2010, dated 2012).

Key:
[1] = target: T1, Met (pY1349) in NCl-H460 cells (Homo sapiens, UniProt P08581); assay: HGF stimulated Met (pY1349) NCI-H460 cell-based ELISA; details: HGF 100 ng/mL stimulated NCI-H460 cells; read-out: relative IC50, H460 assay (c-Met phosphorylation)
T1 construct: host or cells: NCI-H460
Method: NCl—H460 cells (purchased from ATCC) are cultured in RPMI 1640 media (Invitrogen) supplemented with 10% Fetal Bovine Serum (FBS) and plated (prior to becoming 70% confluent) in 96-well flat-bottom plates at a density of 20,000 cells per well in 80 μL volume. The cells are then incubated overnight in a cell culture incubator (5% CO2, 95% Relative Humidity (RH) and 37° C.) and allowed to attach to the plate. The following morning the cells are washed with 2 volumes of a Reduced Serum Media (RSM, RPMI 1640 media supplemented with 0.5% FBS). After removal of the last wash, 80 μL of RSM is added to each well of the cell plates. The cell plates are incubated for 2.5 h in a cell culture incubator, and then dosed with compounds. Compound inhibitors are first solubilized at 10 mM in 100% DMSO and then diluted to 100 μM with 2% DMSO RSM. […] After 1 h capture (at RT) the MSD® plate wells are washed with 1× Tris Wash Buffer, and then 150 μL of 1× Read Buffer T (with surfactant, MSD®) is added. Immediately after the addition of the Read Buffer, the plates are analyzed with a SECTOR 6000 MSD® Imager plate reader. Relative IC50 values are determined using MSD activity units by calculating percent inhibition with respect to on-plate “MIN” and “MAX” controls and then fitting the percent inhibition values and ten-point dose response data to a four-parameter logistic equation.

cMet enzyme = cMet enzyme (Homo sapiens, UniProt P08581); assay: cMet Homogeneous Time Resolved Fluorescence (HTRF) in vitro assay; format: biochemical; details: relative IC50; read-out: c-Met IC50 (HTRF)
Chain of cMet enzyme (P08581 25-1390): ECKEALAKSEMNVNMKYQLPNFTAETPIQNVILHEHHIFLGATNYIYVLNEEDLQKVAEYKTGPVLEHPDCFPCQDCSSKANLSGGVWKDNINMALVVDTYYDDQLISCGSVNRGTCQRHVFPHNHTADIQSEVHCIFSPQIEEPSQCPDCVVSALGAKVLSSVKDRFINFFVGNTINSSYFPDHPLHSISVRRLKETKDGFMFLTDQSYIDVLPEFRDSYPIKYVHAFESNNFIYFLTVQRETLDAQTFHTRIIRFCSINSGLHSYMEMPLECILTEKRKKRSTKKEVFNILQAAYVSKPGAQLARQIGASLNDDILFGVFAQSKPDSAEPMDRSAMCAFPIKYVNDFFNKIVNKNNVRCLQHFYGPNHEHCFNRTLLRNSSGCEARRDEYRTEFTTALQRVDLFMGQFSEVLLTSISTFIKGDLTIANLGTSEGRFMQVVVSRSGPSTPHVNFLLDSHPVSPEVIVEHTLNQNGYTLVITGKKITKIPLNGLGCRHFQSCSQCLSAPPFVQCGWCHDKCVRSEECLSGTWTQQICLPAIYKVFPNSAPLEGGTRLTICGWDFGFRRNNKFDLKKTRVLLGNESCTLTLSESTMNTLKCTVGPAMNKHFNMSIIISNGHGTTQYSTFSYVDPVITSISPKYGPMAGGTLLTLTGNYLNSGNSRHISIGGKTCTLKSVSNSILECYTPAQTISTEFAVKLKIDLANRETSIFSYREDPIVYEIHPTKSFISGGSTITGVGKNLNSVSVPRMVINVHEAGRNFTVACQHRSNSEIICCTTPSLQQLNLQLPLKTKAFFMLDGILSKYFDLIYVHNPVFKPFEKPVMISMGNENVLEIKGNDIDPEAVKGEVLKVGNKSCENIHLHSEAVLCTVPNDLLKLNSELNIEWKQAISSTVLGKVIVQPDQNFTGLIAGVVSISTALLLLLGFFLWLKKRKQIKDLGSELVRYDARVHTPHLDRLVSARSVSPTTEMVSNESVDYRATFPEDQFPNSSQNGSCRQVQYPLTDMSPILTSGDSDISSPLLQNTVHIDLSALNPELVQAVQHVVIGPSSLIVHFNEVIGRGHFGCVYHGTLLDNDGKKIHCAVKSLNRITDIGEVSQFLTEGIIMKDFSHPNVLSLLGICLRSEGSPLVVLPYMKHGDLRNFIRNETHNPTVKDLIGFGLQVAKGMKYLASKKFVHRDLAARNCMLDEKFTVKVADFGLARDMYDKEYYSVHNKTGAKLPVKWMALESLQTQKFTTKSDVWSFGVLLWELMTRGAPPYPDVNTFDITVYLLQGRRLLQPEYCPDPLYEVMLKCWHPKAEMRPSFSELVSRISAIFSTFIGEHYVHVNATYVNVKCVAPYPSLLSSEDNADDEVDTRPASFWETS
From the text: This assay is based on HTRF technology and it is used to detect the phosphorylation of biotin labeled tyrosine peptide by cMet enzyme. After the reaction is completed, XL665 labeled streptavidin is used to recognize the biotin unit and a Europium (Eu3+) labeled anti-phospho-tyrosine antibody is used to recognize the phosphorylated tyrosine. The detection process relies on the transfer of energy between the excited Eu3+ and the XL665 labeled streptavidin. The aim of this protocol is to calculate the ability of test compounds to inhibit the phosphorylation of the product of this reaction and calculate their relative IC50 values.
A reference compound, if desired, may be prepared as a 1 mM stock solution in 100% DMSO and test compounds are prepared as 10 mM stock solutions in 100% DMSO. 1 mM reference compound and 10 mM test compounds are pre-diluted to 8 μM and 80 μM 10% DMSO solutions in a 96-well dilution plate. Compounds are serially diluted (1:3) using Tecan Freedom EVO 200 and 10-point dilution curves are generated for each of the compounds tested. 10 μL of serially diluted compounds are transferred to a 96-well assay plate using Temo (Tecan). […] The assay plate is incubated at RT for 60 min before reading the fluorescence signals at 620 nm emission and 665 nm […] in a Victor3 instrument (PerkinElmer Corporation). […]

T1 sequence (P08581 25-1390): as above

`Cn1cc(-c2ccc3nnc(Sc4ccc5nn(C)cc5c4)n3n2)cn1` [Example 1, 6-(1-Methyl-1H-pyrazol-4-yl)-3-(2-methyl-2H-indazol-5-ylthio)-[1,2,4]triazolo[4,3-b]pyridazine] gave an IC50 [1] of 36 nM and an IC50 (cMet enzyme) of 10 nM.
